Laboratory results published in patent US10167262B2, “Herbicidal substituted 3-arylpyrazoles” (FMC CORPORATION, priority 2014, dated 2019).
Where two headings read alike, the source gives them in different places.

Key:
Type in all cases: in vivo
corn (Zea mays) [1] = assay: Test C pre-/postemergence greenhouse test, plant response rating 0-100; settings: Zea mays; for Corn plant response rating (crop injury, 0 = no effect, 100 = complete kill) at 250 g/ha: 250 g ai/ha
From the text: (§1) Seeds of plant species selected from blackgrass (Alopecurus myosuroides), Italian ryegrass (Lolium multiflorum), winter wheat (Triticum aestivum), galium (catchweed bedstraw, Galium aparine), corn (Zea mays), large (Lg) crabgrass (Digitaria sanguinalis), giant foxtail (Setaria faberii), johnsongrass (Sorghum halepense), lambsquarters (Chenopodium album), morningglory (Ipomoea coccinea), yellow nutsedge (Cyperus esculentus), pigweed (Amaranthus retroflexus), ragweed (common ragweed, Ambrosia elatior), soybean (Glycine max), barnyardgrass (Echinochloa crus-galli), oilseed rape (Brassica napus), waterhemp (common waterhemp, Amaranthus rudis), and velvetleaf (Abutilon theophrasti) were planted into a blend of loam soil and sand and treated preemergence with test chemicals formulated in a non-phytotoxic solvent mixture which included a surfactant.
(§2) At the same time, plants selected from these crop and weed species and also winter barley (Hordeum vulgare), bermudagrass (Cynodon dactylon), downy bromegrass (Bromus tectorum), canarygrass (Phalaris minor), cocklebur (common cocklebur, Xanthium strumarium), woolly cupgrass (Eriochloa villosa), deadnettle (henbit deadnettle, Lamium amplexicaule), green foxtail (Setaria viridis), goosegrass (Eleusine indica), surinam grass (Brachiaria decumbens), windgrass (Apera spica-venti), chickweed (common chickweed, Stellaria media), kochia (Kochia scoparia), and wild oat (Avena fatua), were planted in pots containing Redi-Earth® planting medium (Scotts Company, 14111 Scottslawn Road, Marysville, Ohio 43041) comprising spaghnum peat moss, vermiculite, wetting agent and starter nutrients and treated with postemergence applications of test chemicals formulated in the same manner. Plants ranged in height from 2 to 18 cm (1- to 4-leaf stage) for postemergence treatments. Treated plants and controls were maintained in a greenhouse for 13 to 15 days, after which time all species were compared to controls and visually evaluated. Plant response ratings, summarized in Table C, are based on a scale of 0 to 100 where 0 is no effect and 100 is complete control. A dash (-) response means no test result.

[2] = tested on: ragweed (common ragweed, Ambrosia elatior); assay: as above; settings: Ambrosia artemisiifolia; for pest or weed control at 62 g/ha: 62 g ai/ha; for pest or weed control at 125 g/ha: 125 g ai/ha; for pest or weed control at 250 g/ha: 250 g ai/ha
From the text: as §1, §2

[3] = tested on: pigweed (Amaranthus retroflexus); assay: as above; settings: Amaranthus retroflexus; for pest or weed control at 62 g/ha: 62 g ai/ha; for pest or weed control at 250 g/ha: 250 g ai/ha
From the text: as §1, §2

[4] = tested on: velvetleaf (Abutilon theophrasti); assay: as above; settings: Abutilon theophrasti; for pest or weed control at 62 g/ha: 62 g ai/ha; for pest or weed control at 125 g/ha: 125 g ai/ha; for pest or weed control at 250 g/ha: 250 g ai/ha
From the text: as §1, §2

[5] = tested on: Italian ryegrass (Lolium multiflorum); assay: as above; settings: Lolium multiflorum; for pest or weed control at 62 g/ha: 62 g ai/ha; for pest or weed control at 125 g/ha: 125 g ai/ha; for pest or weed control at 250 g/ha: 250 g ai/ha
From the text: as §1, §2

corn (Zea mays) [6] = assay: Test A pre-/postemergence greenhouse herbicide test, visual injury rating 0-100; settings: for plant injury at 500 g/ha: 500 g ai/ha
Method in brief: (§3)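 Directed soil spray (pre) and foliar spray (post, 1–2 leaf) of solvent/surfactant-formulated compound; greenhouse ~10 d; visual injury 0–100 vs untreated controls.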

[7] = tested on: wheat (Triticum aestivum); assay: as above; settings: for plant injury at 500 g/ha: 500 g ai/ha
Method in brief: as §3

[8] = tested on: barnyardgrass (Echinochloa crus-galli); assay: as above; settings: for pest or weed control at 500 g/ha: 500 g ai/ha
Method in brief: as §3

[9] = tested on: morningglory (Ipomoea spp.); assay: as above; settings: for pest or weed control at 500 g/ha: 500 g ai/ha
Method in brief: as §3

[10] = tested on: large (Lg) crabgrass (Digitaria sanguinalis); assay: as above; settings: for pest or weed control at 500 g/ha: 500 g ai/ha
Method in brief: as §3

[11] = tested on: pigweed (Amaranthus retroflexus); assay: as above; settings: for pest or weed control at 500 g/ha: 500 g ai/ha
Method in brief: as §3

[12] = tested on: giant foxtail (Setaria faberii); assay: as above; settings: for pest or weed control at 500 g/ha: 500 g ai/ha
Method in brief: as §3

[13] = tested on: velvetleaf (Abutilon theophrasti); assay: as above; settings: for pest or weed control at 500 g/ha: 500 g ai/ha
Method in brief: as §3

[14] = post-emergence, Postemergence, scale 0 to 100
[15] = pre-emergence, Preemergence, 500 g ai/ha
[16] = post-emergence, Postemergence, read-out: Plant response rating (0 to 100), Ragweed
[17] = pre-emergence, Preemergence, read-out: Plant response rating, Ragweed
[18] = post-emergence, Postemergence, read-out: Plant response rating (0 to 100), Velvetleaf
[19] = pre-emergence, Preemergence, read-out: Plant response rating, Velvetleaf
[20] = post-emergence, Postemergence, read-out: Plant response rating (0 to 100), Ryegrass, Italian
[21] = pre-emergence, Preemergence, read-out: Plant response rating, Ryegrass, Italian

`Cn1cc(C(=O)c2ccccc2)c(-c2cc(Cl)cc(Cl)c2)n1` [Compound 54, [3-(3,5-dichlorophenyl)-1-methyl-1H-pyrazol-4-yl]phenylmethanone] gave a plant injury at 31 g/ha (corn (Zea mays) [1]; post-emergence, Postemergence, 31 g ai/ha) of 0%, a plant injury at 62 g/ha (corn (Zea mays) [1]; post-emergence, Postemergence, 62 g ai/ha) of 0% and a plant injury at 125 g/ha (corn (Zea mays) [1]; post-emergence, Postemergence, 125 g ai/ha) of 0%. The Corn plant response rating (crop injury, 0 = no effect, 100 = complete kill) at 250 g/ha (corn (Zea mays) [1]; [14]) was 0%, the Corn plant response rating (crop injury, 0 = no effect, 100 = complete kill) at 62 g/ha (corn (Zea mays) [1]; pre-emergence, Preemergence, 62 g ai/ha) was 0% and the Corn plant response rating (crop injury, 0 = no effect, 100 = complete kill) at 125 g/ha (corn (Zea mays) [1]; pre-emergence, Preemergence, 125 g ai/ha) was 0%. The Corn plant response rating (crop injury, 0 = no effect, 100 = complete kill) at 250 g/ha (corn (Zea mays) [1]; pre-emergence, Preemergence) was 10%, the Corn plant response rating (crop injury, 0 = no effect, 100 = complete kill) at 500 g/ha (corn (Zea mays) [1]; [15]) was 10% and the pest or weed control at 62 g/ha [2, 16] was 0%. For the same molecule, the pest or weed control at 125 g/ha [2, 16] was 0%, the pest or weed control at 250 g/ha [2, 14] was 20% and the pest or weed control at 62 g/ha [2, 17] was 5%. For the same molecule, the pest or weed control at 125 g/ha [2, 17] was 15%, the pest or weed control at 250 g/ha ([2]; pre-emergence, Preemergence) was 15% and the pest or weed control at 500 g/ha [2, 15] was 40%. For the same molecule, the pest or weed control at 62 g/ha ([3]; post-emergence, Postemergence, read-out: Plant response rating (0 to 100), Pigweed) was 98%, the pest or weed control at 125 g/ha ([3]; post-emergence, Postemergence, 125 g ai/ha, read-out: Plant response rating (0 to 100), Pigweed) was 100% and the pest or weed control at 250 g/ha [3, 14] was 100%. It also gave a pest or weed control at 62 g/ha ([3]; pre-emergence, Preemergence, read-out: Plant response rating, Pigweed) of 90%, a pest or weed control at 250 g/ha ([3]; pre-emergence, Preemergence) of 95% and a pest or weed control at 500 g/ha [3, 15] of 95%. For the same molecule, the pest or weed control at 62 g/ha [4, 18] was 80%, the pest or weed control at 125 g/ha [4, 18] was 85% and the pest or weed control at 250 g/ha [4, 14] was 100%. The pest or weed control at 62 g/ha [4, 19] was 45%, the pest or weed control at 125 g/ha [4, 19] was 55% and the pest or weed control at 250 g/ha ([4]; pre-emergence, Preemergence) was 60%. The pest or weed control at 500 g/ha [4, 15] was 80%, the pest or weed control at 62 g/ha [5, 20] was 0% and the pest or weed control at 125 g/ha [5, 20] was 0%. It also gave a pest or weed control at 250 g/ha [5, 14] of 0%, a pest or weed control at 62 g/ha [5, 21] of 0% and a pest or weed control at 125 g/ha [5, 21] of 0%. The pest or weed control at 250 g/ha ([5]; pre-emergence, Preemergence) was 0%, the pest or weed control at 500 g/ha [5, 15] was 0% and the “Corn plant response rating (0 = no effect, 100 = complete control)” value (corn (Zea mays) [6]; Preemergence, 125 g ai/ha) was 0. The plant injury at 125 g/ha (corn (Zea mays) [6]; Zea mays, post-emergence, 240 h, Postemergence, 125 g ai/ha, read-out: Plant response rating (0 to 100 scale), Corn) was 0%, the plant injury at 500 g/ha (corn (Zea mays) [6]; Zea mays, post-emergence, 240 h, Postemergence, read-out: Plant response rating (0 to 100 scale), Corn) was 0% and the plant injury at 500 g/ha (corn (Zea mays) [6]; Zea mays, pre-emergence, 240 h, Preemergence, read-out: Plant response rating (0 to 100 scale), Corn) was 0%. For the same molecule, the “Wheat plant response rating (0 = no effect, 100 = complete control)” value ([7]; Preemergence, 125 g ai/ha) was 0, the plant injury at 125 g/ha ([7]; Triticum aestivum, post-emergence, 240 h, Postemergence, 125 g ai/ha, read-out: Plant response rating (0 to 100 scale), Wheat) was 0% and the plant injury at 500 g/ha ([7]; Triticum aestivum, post-emergence, 240 h, Postemergence, read-out: Plant response rating (0 to 100 scale), Wheat) was 0%. For the same molecule, the plant injury at 500 g/ha ([7]; Triticum aestivum, pre-emergence, 240 h, Preemergence, read-out: Plant response rating (0 to 100 scale), Wheat) was 0%, the pest or weed control at 125 g/ha ([8]; Echinochloa crus-galli, post-emergence, 240 h, Postemergence, 125 g ai/ha, read-out: Plant response rating (0 to 100 scale), Barnyardgrass) was 0% and the pest or weed control at 500 g/ha ([8]; Echinochloa crus-galli, post-emergence, 240 h, Postemergence, read-out: Plant response rating (0 to 100 scale), Barnyardgrass) was 0%. The pest or weed control at 500 g/ha ([8]; Echinochloa crus-galli, pre-emergence, 240 h, Preemergence, read-out: Plant response rating (0 to 100 scale), Barnyardgrass) was 0%, the “Barnyardgrass plant response rating (0 = no effect, 100 = complete control)” value ([8]; Preemergence, 125 g ai/ha) was 0 and the pest or weed control at 125 g/ha ([9]; Ipomoea, post-emergence, 240 h, Postemergence, 125 g ai/ha, read-out: Plant response rating (0 to 100 scale), Morningglory) was 0%. For the same molecule, the pest or weed control at 500 g/ha ([9]; Ipomoea, post-emergence, 240 h, Postemergence, read-out: Plant response rating (0 to 100 scale), Morningglory) was 0%, the pest or weed control at 500 g/ha ([9]; Ipomoea, pre-emergence, 240 h, Preemergence, read-out: Plant response rating (0 to 100 scale), Morningglory) was 0% and the “Morningglory plant response rating (0 = no effect, 100 = complete control)” value ([9]; Preemergence, 125 g ai/ha) was 0. For the same molecule, the pest or weed control at 125 g/ha ([10]; Digitaria sanguinalis, post-emergence, 240 h, Postemergence, 125 g ai/ha, read-out: Plant response rating (0 to 100 scale), Crabgrass, Large) was 0%, the pest or weed control at 500 g/ha ([10]; Digitaria sanguinalis, post-emergence, 240 h, Postemergence, read-out: Plant response rating (0 to 100 scale), Crabgrass, Large) was 0% and the pest or weed control at 500 g/ha ([10]; Digitaria sanguinalis, pre-emergence, 240 h, Preemergence, read-out: Plant response rating (0 to 100 scale), Crabgrass, Large) was 0%. The “Crabgrass, Large plant response rating (0 = no effect, 100 = complete control)” value ([10]; Preemergence, 125 g ai/ha) was 0, the pest or weed control at 125 g/ha ([11]; Amaranthus retroflexus, post-emergence, 240 h, Postemergence, 125 g ai/ha, read-out: Plant response rating (0 to 100 scale), Pigweed) was 90% and the pest or weed control at 500 g/ha ([11]; Amaranthus retroflexus, post-emergence, 240 h, Postemergence, read-out: Plant response rating (0 to 100 scale), Pigweed) was 100%. The pest or weed control at 500 g/ha ([11]; Amaranthus retroflexus, pre-emergence, 240 h, Preemergence, read-out: Plant response rating (0 to 100 scale), Pigweed) was 90%, the “Pigweed plant response rating (0 = no effect, 100 = complete control)” value ([11]; Preemergence, 125 g ai/ha) was 50 and the “Foxtail, Giant plant response rating (0 = no effect, 100 = complete control)” value ([12]; Preemergence, 125 g ai/ha) was 0. It also gave a pest or weed control at 125 g/ha ([12]; Setaria faberi, post-emergence, 240 h, Postemergence, 125 g ai/ha, read-out: Plant response rating (0 to 100 scale), Foxtail, Giant) of 0%, a pest or weed control at 500 g/ha ([12]; Setaria faberi, post-emergence, 240 h, Postemergence, read-out: Plant response rating (0 to 100 scale), Foxtail, Giant) of 0% and a pest or weed control at 500 g/ha ([12]; Setaria faberi, pre-emergence, 240 h, Preemergence, read-out: Plant response rating (0 to 100 scale), Foxtail, Giant) of 0%. For the same molecule, the pest or weed control at 125 g/ha ([13]; Abutilon theophrasti, post-emergence, 240 h, Postemergence, 125 g ai/ha, read-out: Plant response rating (0 to 100 scale), Velvetleaf) was 90%, the pest or weed control at 500 g/ha ([13]; Abutilon theophrasti, post-emergence, 240 h, Postemergence, read-out: Plant response rating (0 to 100 scale), Velvetleaf) was 100% and the pest or weed control at 500 g/ha ([13]; Abutilon theophrasti, pre-emergence, 240 h, Preemergence, read-out: Plant response rating (0 to 100 scale), Velvetleaf) was 60%. For the same molecule, the “Velvetleaf plant response rating (0 = no effect, 100 = complete control)” value ([13]; Preemergence, 125 g ai/ha) was 30.
